Earlier results, collected in US20110060040A1, “USES OF ACYLOXYALKYL CARBAMATE PRODRUGS OF TRANEXAMIC ACID” (XenoPort, Inc., priority 2009, published 2011).

Tests used:
[1] = human patients, prodrug given orally
[2] = patients undergoing total knee arthroplasty
[3] = cardiopulmonary bypass surgery, prophylactic administration

## CCOC(=O)OC(C)OC(=O)[C@H]1CC[C@H](CN)CC1 (relative stereo) [Kabi 2161, 1-(ethoxycarbonyl)oxyethyl trans-4-(aminomethyl)-cyclohexanecarboxylate]
[1]
  oral bioavailability of tranexamic acid: markedly improved

## NC[C@H]1CC[C@H](C(=O)O)CC1 [tranexamic acid, trans-4-(aminomethyl)-cyclohexanecarboxylic acid]
[2]
  reduction of total blood loss: up to 50%
[3]
  reduction of post-operative bleeding: 30-40%
In vivo
  excretion: most is excreted unchanged by the kidney
  fraction of administered tranexamic acid metabolized: Only a small fraction
  volume of distribution: 9 to 12 L
oral
  oral bioavailability: ca. 30%
